Entries after “also recorded” stand apart in the source; their conditions may differ.
What was measured:
[1] = system: mushroom tyrosinase; experiment: Oximetry: oxidation of substrates by tyrosinase; type: biochemical; conditions: 100 μM substrate, 165 units of tyrosinase/ml, room temperature; compared with tyrosine
[2] = system: human melanoma (C32, G361 and STMl1la) and nonmelanoma derived cell lines (Caki-2 and CHO); type: cell-based
[3] = system: tyrosinase; experiment: Release of drug from prodrug upon treatment with tyrosinase (TLC, GCMS); type: biochemical; conditions: DMSO/phosphate buffer pH 7.2, 25° C., 1 hour; TLC and GCMS

| Compound | oxidation by tyrosinase (utilization of oxygen with respect to time) [1] | relative toxicity (inverse of the IC50) [2] | melting point | release of mustard drug upon tyrosinase treatment [3] |
| --- | --- | --- | --- | --- |
| COc1ccc(O)cc1 [4-Hydroxyanisole, 4-hydroxyanisole] | oxidised, but at a lower rate than tyrosine | – | – | – |
| NCCc1ccc(O)c(O)c1 [Compound B] | – | essentially non-toxic | – | – |
| O=C(NCCc1ccc(O)c(O)c1)Oc1ccc(N(CCCl)CCCl)cc1 [Compound A, N-(N-bis-chlorethyl-4-amino-phenyloxycarbonyl)-3-hydroxy-tyramine] | oxidised by tyrosinase, although the rate of the reaction was lower than for the normal substrate | relatively non-toxic; also recorded: increasing toxicity with tyrosinase activity | 80 °C (dec.) | – |
| O=C(NCCc1ccc(O)cc1)Oc1ccc(N(CCCl)CCCl)cc1 [Prodrug (1)] | – | – | – | a component of identical Rf to the authentic mustard drug had been produced |
| CC(=O)N[C@@H](Cc1ccc(O)cc1)C(=O)O [N-acetyl tyrosine] | oxidised, but at a lower rate than tyrosine | – | – | – |

From patent US6573284B1, “Method of treating melanoma” (priority 1996, dated 2003)
